# pEC50: −log10 of the molar value.
# Biological target: T1, recombinant IL4I1 (Homo sapiens, UniProt Q96RQ9)
# T1 construct: purchased R&D Systems 5684-AO-020
# T1 sequence (Q96RQ9 22-567): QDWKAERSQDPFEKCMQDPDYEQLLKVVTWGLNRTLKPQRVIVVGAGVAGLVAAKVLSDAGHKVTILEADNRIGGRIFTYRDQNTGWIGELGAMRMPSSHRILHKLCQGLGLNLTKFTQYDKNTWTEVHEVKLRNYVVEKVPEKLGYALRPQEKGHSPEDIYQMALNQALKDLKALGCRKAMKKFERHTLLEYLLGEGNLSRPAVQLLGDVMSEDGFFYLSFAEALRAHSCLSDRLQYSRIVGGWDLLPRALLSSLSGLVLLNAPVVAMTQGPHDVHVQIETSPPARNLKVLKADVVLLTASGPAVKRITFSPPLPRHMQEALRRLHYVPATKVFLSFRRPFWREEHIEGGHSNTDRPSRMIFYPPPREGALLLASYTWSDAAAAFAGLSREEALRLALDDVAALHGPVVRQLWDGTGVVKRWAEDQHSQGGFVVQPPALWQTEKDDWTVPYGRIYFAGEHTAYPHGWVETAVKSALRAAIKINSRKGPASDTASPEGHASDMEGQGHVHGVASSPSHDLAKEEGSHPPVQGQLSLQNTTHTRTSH
# Assay: IL4I1 Enzymatic Assay (Amplex Red/HRP coupled detection of H2O2, fluorescence)
# Assay type: biochemical
# Details: 1 nM recombinant IL4I1; four-hour pre-incubation with compound; 1 mM each Phe, Tyr, Trp; ten-point titration
# Procedure, shortened: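 Recombinant IL4I1 (1 nM final) pre-incubated 4 h at ambient temperature with compound (0.5% DMSO) in 50 mM Hepes pH 7.0, 0.005% Tween20; reaction started with 1 mM each Phe/Tyr/Trp plus excess Amplex Red/HRP, run 120 min. H2O2 read as resorufin fluorescence; EC50 from 10-point four-parameter fit.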
row,Compound,pEC50
1,"C[C@H](O)[C@H](CO)n1cc(C(=O)NCc2nnc(-c3ccccc3)s2)nn1 [Example 186, 1-((2S,3S)-1,3-dihydroxybutan-2-yl)-N-((5-phenyl-1,3,4-thiadiazol-2-yl)methyl)-1H-1,2,3-triazole-4-carboxamide]",6.56
2,"O=C(NCc1ccc(-c2ccccc2)nn1)c1cn(CC(F)F)nn1 [Example 293, 1-(2,2-difluoroethyl)-N-((6-phenylpyridazin-3-yl)methyl)-1H-1,2,3-triazole-4-carboxamide]",7.68
3,O=C(NCc1nnc(-c2ccccc2)s1)c1cn([C@H]2C[C@H](O)C2)nn1 [Example 281],7.96
4,"O=C(NCc1nnc(-c2ccccc2)s1)c1cn(C2COC2)nn1 [Example 67, 1-(oxetan-3-yl)-N-((5-phenyl-1,3,4-thiadiazol-2-yl)methyl)-1H-1,2,3-triazole-4-carboxamide]",7.85
5,"C[C@H](C1COC1)n1cc(C(=O)NCc2nnc(-c3ccccc3)s2)nn1 [Example 149, (R)-1-(1-(oxetan-3-yl)ethyl)-N-((5-phenyl-1,3,4-thiadiazol-2-yl)methyl)-1H-1,2,3-triazole-4-carboxamide]",6.88
6,"O=C(NCc1nnc(-c2ccccc2)s1)c1cn(CCF)nn1 [Example 80, 1-(2-fluoroethyl)-N-((5-phenyl-1,3,4-thiadiazol-2-yl)methyl)-1H-1,2,3-triazole-4-carboxamide]",8.70
7,"CC(C)(O)c1cc(C(=O)NCc2nnc(-c3ccccc3)s2)on1 [Example 328, 3-(2-hydroxypropan-2-yl)-N-((5-phenyl-1,3,4-thiadiazol-2-yl)methyl)isoxazole-5-carboxamide]",6.51
8,"C[C@@H](C(F)F)n1cc(C(=O)NCc2nnc(-c3ccccc3)s2)nn1 [Example 167, (S)-1-(1,1-difluoropropan-2-yl)-N-((5-phenyl-1,3,4-thiadiazol-2-yl)methyl)-1H-1,2,3-triazole-4-carboxamide]",8.15
9,"Cc1ccc(-n2cc(C(=O)NCc3ccc(-c4cccc(F)c4)nn3)nn2)c(C)n1 [Example 120, 1-(2,6-dimethylpyridin-3-yl)-N-((6-(3-fluorophenyl)pyridazin-3-yl)methyl)-1H-1,2,3-triazole-4-carboxamide]",6.91
10,"Cc1ccc(-n2cc(C(=O)NCc3nnc(C4CCCCC4)s3)nn2)c(C)n1 [Example 324, N-((5-cyclohexyl-1,3,4-thiadiazol-2-yl)methyl)-1-(2,6-dimethylpyridin-3-yl)-1H-1,2,3-triazole-4-carboxamide]",6.56
11,"COCc1ccc(C(=O)NCc2nnc(-c3ccccc3)s2)o1 [Example 45, 5-(methoxymethyl)-N-[(5-phenyl-1,3,4-thiadiazol-2-yl)methyl]furan-2-carboxamide]",6.26
12,"O=C(NCc1nnc(-c2ccccc2)s1)c1cn([C@H]2COC[C@@H]2O)nn1 [Example 189, 1-((3S,4R)-4-hydroxytetrahydrofuran-3-yl)-N-((5-phenyl-1,3,4-thiadiazol-2-yl)methyl)-1H-1,2,3-triazole-4-carboxamide]",6.97
13,"O=C(NCc1nnc(-c2ccccc2)s1)c1cn([C@H]2CCC[C@@H]2O)nn1 [Example 209, 1-((1S,2S)-2-hydroxycyclopentyl)-N-((5-phenyl-1,3,4-thiadiazol-2-yl)methyl)-1H-1,2,3-triazole-4-carboxamide]",6.84
14,"Cn1nnc(C(=O)NCc2nnc(-c3ccccc3)s2)c1F [Example 289, 5-fluoro-1-methyl-N-((5-phenyl-1,3,4-thiadiazol-2-yl)methyl)-1H-1,2,3-triazole-4-carboxamide]",6.52
15,"Cc1ccc(-n2cc(C(=O)NCc3ccc(-c4cc(F)ccc4F)nn3)nn2)c(C)n1 [Example 123, N-((6-(2,5-difluorophenyl)pyridazin-3-yl)methyl)-1-(2,6-dimethylpyridin-3-yl)-1H-1,2,3-triazole-4-carboxamide]",6.65
16,"COCC[C@@H](C)n1cc(C(=O)NCc2nnc(-c3ccccc3)s2)nn1 [Example 65, (R)-1-(4-methoxybutan-2-yl)-N-((5-phenyl-1,3,4-thiadiazol-2-yl)methyl)-1H-1,2,3-triazole-4-carboxamide]",7.17
17,"CC(C)Cn1cc(C(=O)NCc2nnc(-c3ccccc3)s2)nn1 [Example 88, 1-isobutyl-N-((5-phenyl-1,3,4-thiadiazol-2-yl)methyl)-1H-1,2,3-triazole-4-carboxamide]",7.89
18,"Cc1ccsc1C(=O)NCc1nnc(-c2ccccc2)s1 [Example 15, 3-methyl-N-[(5-phenyl-1,3,4-thiadiazol-2-yl)methyl]thiophene-2-carboxamide]",6.82
19,"O=C(NCc1nnc(-c2ccccc2)s1)c1cc2n(n1)CCC2 [Example 48, N-[(5-phenyl-1,3,4-thiadiazol-2-yl)methyl]-5,6-dihydro-4H-pyrrolo[1,2-b]pyrazole-2-carboxamide]",6.63
20,"O=C(NCc1nnc(-c2ccccc2)s1)c1c[nH]c(C2CC2)n1 [Example 11, 2-cyclopropyl-N-((5-phenyl-1,3,4-thiadiazol-2-yl)methyl)-1H-imidazole-4-carboxamide]",6.58
21,"Cc1ccc(-n2cc(C(=O)NCc3cc(-c4ccccc4Cl)on3)nn2)c(C)n1 [Example 222, N-{[5-(2-chlorophenyl)-1,2-oxazol-3-yl]methyl}-1-(2,6-dimethylpyridin-3-yl)-1H-1,2,3-triazole-4-carboxamide]",6.76
22,"O=C(NCc1nnc(-c2ccccc2)s1)c1cn(-c2cccnc2)nn1 [Example 242, N-((5-phenyl-1,3,4-thiadiazol-2-yl)methyl)-1-(pyridin-3-yl)-1H-1,2,3-triazole-4-carboxamide]",6.15
23,"CC(c1ccno1)n1cc(C(=O)NCc2nnc(-c3ccccc3)s2)nn1 (centres unmarked) [Example 155, 1-(1-(isoxazol-5-yl)ethyl)-N-((5-phenyl-1,3,4-thiadiazol-2-yl)methyl)-1H-1,2,3-triazole-4-carboxamide]",7.89
24,"CC(NC(=O)c1cn(C)nn1)c1nnc(-c2ccccc2)s1 (single isomer, unassigned) [Example 259, 1-methyl-N-(1-(5-phenyl-1,3,4-thiadiazol-2-yl)ethyl)-1H-1,2,3-triazole-4-carboxamide]",7.59
25,"O=C(NCc1nnc(-c2ccccc2)s1)c1cn(C2(C(F)F)CC2)nn1 [Example 152, 1-(1-(difluoromethyl)cyclopropyl)-N-((5-phenyl-1,3,4-thiadiazol-2-yl)methyl)-1H-1,2,3-triazole-4-carboxamide]",6.78
26,"Cc1ccc(C(=O)NCc2nnc(-c3ccccc3)s2)s1 [Example 12, 5-methyl-N-[(5-phenyl-1,3,4-thiadiazol-2-yl)methyl]thiophene-2-carboxamide]",7.05
27,"CC(C)(O)Cn1cc(C(=O)NCc2nnc(-c3ccccc3)s2)nn1 [Example 323, 1-(2-hydroxy-2-methylpropyl)-N-((5-phenyl-1,3,4-thiadiazol-2-yl)methyl)-1H-1,2,3-triazole-4-carboxamide]",6.69
28,"CC1(n2cc(C(=O)NCc3nnc(-c4ccccc4)s3)nn2)CCC1 [Example 124, 1-(1-methylcyclobutyl)-N-((5-phenyl-1,3,4-thiadiazol-2-yl)methyl)-1H-1,2,3-triazole-4-carboxamide]",7.64
29,"O=C(NCc1nnc(-c2ccccc2)s1)c1cn(C(F)F)nn1 [Example 272, 1-(difluoromethyl)-N-((5-phenyl-1,3,4-thiadiazol-2-yl)methyl)-1H-1,2,3-triazole-4-carboxamide]",7.92
